# From patent US20160175313A1, “ENTECAVIR MICROSPHERES AND PHARMACEUTICAL COMPOSITION FOR PARENTERAL ADMINISTRATION CONTAINING SAME” (priority 2013, published 2016)
# Legend:
# rats = tested on: rats
# Protocol: A test was conducted to determine whether local irritation is caused by subcutaneous administration of entecavir into rats.
# After entecavir (2.33 mg/kg/day) was subcutaneously injected into 15 male rats per each group, mortality, common symptoms, body weight, autopsy and histopathological evaluation on 1, 4, 5, 8 and 12 weeks were checked to compare with the control group in which excipient was administered.
# [1] = Solubility of entecavir in organic solvent; format: physicochemical
# [2] = orally administered; cited from earlier work
# HBV = settings: first-time patients, oral preparations, cited from earlier work
# [3] = rat, in vivo, sc, 2.33 mg/kg/day
smiles,measurement,setting,value
"C=C1[C@H](CO)[C@@H](O)C[C@@H]1n1cnc2c(=O)[nH]c(N)nc21 [entecavir, Entecavir]",mortality,"rats; male rats, 2.33 mg/kg/day subcutaneous, checked up to 12 weeks",no dead animal was observed
same,"local toxicity, overall conclusion","rats; rat, in vivo, sc",did not show harmful local toxicity
same,abnormal symptoms and abnormal body weight change related to administration,rats; [3],not observed
same,autopsy results,rats; [3],no abnormal finding
same,inflammation (histopathology),rats; [3],inflammation was observed
same,recovery from inflammation,rats; [3],all animals recovered from inflammation
same,"injection site microscopy (H&E staining), inflammatory cells","rats; rats, 4 weeks after subcutaneous administration, 2.33 mg/kg/day",some subcutaneous tissue inflammatory cells were observed
same,solubility in methylene chloride,[1],insoluble
same,bioavailability,[2],~100%
same,patients HBV-undetectable after 1 year of administration,HBV; 1 year,about 70%
same,patients HBV-undetectable after 3 years,HBV; 3 years,about 90%
